Assay results published in US5585511A, “Platinum complex and malignant tumor treating drug containing the same” (SS Pharmaceutical Co., Ltd., priority 1994, dated 1996).

How the values were obtained:
[1] = system: cisplatin-resistant murine L1210 leukemia cell (L1210/DDP); assay: Antitumor effect on cisplatin-resistant murine L1210 leukemia cell (L1210/DDP), increase in life-span; type: in vivo, murine; male CDF1 mice; details: for dose corresponding to ILSmax: dose(s) shown in parenthesis; for ILSmax (maximum ILS value within the set doses): male CDF1 mice, observed for 30 days; for ILS50 (a dose which shows 50% of the ILS value by 5 administrations): ND: not detectable; for TI (therapeutic index LD50/ILS50): LD50/ILS50, ND: not detectable
Source text: (§1) Murine L1210 leukemia cells (1×10^5 cells) were inoculated peritoneally into six-week-old male CDF1 mice.
(§2) T: mean survival days of drug-treated group
(§3) C: mean survival days of untreated group
(§4) In the table, ILSmax means the maximum ILS value (%) within the set doses, and its corresponding dose (mg/kg) is shown in parenthesis.
Antitumor effect on cisplatin-resistant murine L1210 leukemia cell:
The above test of the antitumor effect on murine leukemia cells was repeated except that cisplatin-resistant murine L1210 leukemia cell (L1210/DDP) was used instead of murine L1210 leukemia cell, with the results shown in Table 2.

[2] = system: murine L1210 leukemia cells; assay: Antitumor effect on murine L1210 leukemia cell (intraperitoneally inoculated mice, increase in life-span); type: in vivo, murine; male CDF1 mice; details: for ILS50 (a dose which shows 50% of the ILS value by 5 administrations): from linear regression line; for dose corresponding to ILSmax: dose shown in parenthesis; for ILSmax (maximum ILS value within the set doses): male CDF1 mice, observed for 30 days
Source text: as §1, §2, §3, §4

male CDF1 mice = assay: 50% lethal dose by single intraperitoneal administration; type: in vivo
Source text: as §4

Compound | dose corresponding to ILSmax [1] | ILSmax (maximum ILS value within the set doses) [1] [%] | ILS50 (a dose which shows 50% of the ILS value by 5 administrations) [2] [mg/kg] | dose corresponding to ILSmax [2] [mg/kg] | ILSmax (maximum ILS value within the set doses) [2] [%] | ILS50 (a dose which shows 50% of the ILS value by 5 administrations) [1] [mg/kg] | TI (therapeutic index LD50/ILS50) [1] | LD50 (male CDF1 mice) [mg/kg] | TI (therapeutic index LD50/ILS50) [2]
N.N.[Cl][Pt][Cl] [Cisplatin, cisplatin, reference compound] | 4 mg/kg | 1.0 | 1.3 | 4 | 97.5 |  |  |  | 
O=C([O][Pt]1([Cl])[NH]C2CCCCC2[NH]1)C1CCCC1 (stereo not drawn) [Compound 16, chloro(cyclopentanecarboxylato)(trans-1-1,2-diaminocyclohexane)platinum(II)] | 4,8 mg/kg | > 194.1 | 5.6 | 32 | > 221.3 | < 4.0 | > 44.2 | 176.8 | 31.6
chloro (cyclopropanecarboxylato) (trans-1-1,2-diaminocyclohexane)platinum(II) [Compound 15] | 1,2 mg/kg | > 194.1 | 1.2 | 8 | > 166.3 | < 1.0 | > 31.3 | 31.3 | 26.1
chloro(1-lactato)(trans-1-1,2-diaminocyclohexane)platinum(II) [Compound 17] | 1,2 mg/kg | > 194.1 | < 1.0 | 8 | > 190.0 | < 1.0 | > 44.3 | 44.3 | > 44.3
chloro(propionato)(trans-1-1,2-diaminocyclohexane)platinum(II) [Compound 14] |  | > 194.1 | 1.0 | 8 | 146.3 | < 1.0 | > 44.3 | 44.3 | 44.3
